Laboratory results as given in US12508306B2, “Compositions and methods of use thereof for treatment of metabolic diseases and related disorders” (Washington University, priority 2018, dated 2025).

Tests used:
Arg2 [1] = assay: Arg2 gene expression in cultured primary hepatocytes (RNA-seq, qPCR); format: cell-based, murine
Text: AML12 cells (CRL-2254) were purchased directly from the American Type Culture Collection (ATCC) and propagated and maintained precisely per manufacturer specification. Primary hepatocyte cell isolation, culture and treatment Primary murine hepatocytes obtained from WT mice were isolated^24,25,31 and cultured and maintained in regular DMEM growth media (Sigma, #D5796) containing 10% FBS. For in vitro starvation experiments, “starved” media contained 1 g/L glucose and 0:5% FBS was used. Cultures were lysed in Trizol and subjected to downstream analysis. In vitro genetic knockdown was achieved via siRNA transfection using Lipofectamine 3000 from Invitrogen (L3000015). Trehalose was obtained from Sigma Aldrich (St. Louis, MO) and was >97% purity by HPLC. Three percent trehalose water (w/v) fed ad libitum was used in all in vivo experiments.
(§1) Total RNA was prepared by homogenizing snap-frozen livers or cultured hepatocytes in Trizol reagent (Invitrogen #15596026) according to the manufacturer's protocol. cDNA was prepared using Qiagen Quantitect reverse transcriptase kit (Qiagen #205310). Real-time qPCR was performed with Step-One Plus Real-Time PCR System (Applied Biosystems) using SYBR Green master Mix Reagent (Applied Biosystems) and specific primer pairs. Relative gene expression was calculated by a comparative method using values normalized to the expression of an internal control gene.

Arg2 [2] = assay: Hepatic Arg2 expression by qPCR and immunoblot in mice subjected to trehalose feeding; format: in vivo; settings: mice fed 3% trehalose water ad libitum, 5 days
Text: AML12 cells (CRL-2254) were purchased directly from the American Type Culture Collection (ATCC) and propagated and maintained precisely per manufacturer specification. Primary hepatocyte cell isolation, culture and treatment Primary murine hepatocytes obtained from WT mice were isolated^24,25,31 and cultured and maintained in regular DMEM growth media (Sigma, #D5796) containing 10% FBS. For in vitro starvation experiments, “starved” media contained 1 g/L glucose and 0:5% FBS was used. Cultures were lysed in Trizol and subjected to downstream analysis. In vitro genetic knockdown was achieved via siRNA transfection using Lipofectamine 3000 from Invitrogen (L3000015). […]
as §1, with “Real-time qPCR was performed with Step-One Plus Real-Time PCR System (Applied Biosystems) using SYBR Green master Mix Reagent (Applied Biosystems) and specific primer pairs.” left out
Tissues were homogenized in RIPA buffer supplemented with protease and phosphatase inhibitors (Thermo Scientific). […] Protein concentration was determined by BCA Assay Kit (Thermo Scientific) and was adjusted to 2 mg/mL. […] Protein expression levels were quantified with Image Lab software and normalized to the levels of β-actin or GAPDH.

[3] = read-out: Km for arginine; cited from earlier work

## OCC1OC(OC2OC(CO)C(O)C(O)C2O)C(O)C(O)C1O (centres unmarked) [Lactotrehalose, lactotrehalose]
Arg2 [1]; primary hepatocytes, 10 mM and 100 mM
  Arg2 expression compared with native trehalose at equivalent doses: significantly enhanced

## OC[C@H]1O[C@H](O[C@H]2O[C@H](CO)[C@@H](O)[C@H](O)[C@H]2O)[C@H](O)[C@@H](O)[C@@H]1O [trehalose]
Arg2 [2]
  hepatic Arg2 mRNA and protein: induced Arg2 mRNA and protein
Arg2 [1]; primary hepatocytes, 1 mM, 10 mM, and 100 mM, within 24 h
  Arg2 induction by qPCR and immunoblot: rapid, dose-dependent, cell autonomous Arg2 induction
Arg2 [1]; trehalose-treated primary hepatocytes relative to untreated hepatocytes
  Arg2 expression by RNA-seq: among the most highly upregulated genes

B1: human arginase 1: human arginase 1 enzyme (protein, UniProt P05089 1-322, looked up)
Arginase-1: MSAKSRTIGIIGAPFSKGQPRGGVEEGPTVLRKAGLLEKLKEQECDVKDYGDLPFADIPNDSPFQIVKNPRSVGKASEQLAGKVAEVKKNGRISLVLGGDHSLAIGSISGHARVHPDLGVIWVDAHTDINTPLTTTSGNLHGQPVSFLLKELKGKIPDVPGFSWVTPCISAKDIVYIGLRDVDPGEHYILKTLGIKYFSMTEVDRLGIGKVMEETLSYLLGRKKRPIHLSFDVDGLDPSFTPATGTPVVGGLTYREGLYITEEIYKTGLLSGLDIMEVNPSLGKTPEEVTRTVNTAVAITLACFGLAREGNHKPIDYLNPPK
[3]
  Km: ~45 mM
